Reference: US20090068290A1, “BIFEPRUNOX DOSES FOR TREATING SCHIZOPHRENIA” (priority 2006, published 2009)

Legend:
Format in all cases: in vivo, human
[1] = test system: adult subjects with schizophrenia; experiment: Adverse events (TEAE, SAE, discontinuation, EPS-related TEAE, anticholinergic use), Clinical Study One; conditions: for safety and tolerability: bifeprunox 5, 10, 20 mg, 6 weeks
Experimental: METHODOLOGY: This was a randomized, double-blind, fixed-dose, placebo-controlled, risperidone-referenced, parallel group, multi-center study in adult subjects with schizophrenia. There were five treatment groups in this study. […] Study medication was administered once daily. After Baseline measurements were performed, the titration phase was begun. Bifeprunox treated subjects were titrated up to 5 mg, 10 mg or 20 mg according to a standardized titration schedule (Day 1: 0.125 mg, Day 2: 0.25 mg, Day 3: 0.5 mg, Day 4: 1.0 mg, Day 5: 2.0 mg, Day 6: 5.0 mg, Day 7: 10.0 mg, Day 8: 20 mg).

[2] = test system: adult subjects with schizophrenia; experiment: CGI Improvement score, Clinical Study Three; parameters: CGI Improvement Very Much Worse, %: dose or concentration left out as unconfirmed; conditions: LOCF
Experimental: CLINICAL STUDY THREE: Table 29 below presents frequencies for the seven categories of CGI Improvement ratings by visit using LOCF for the ITT population. Statistical differences among treatment groups regarding the mean CGI Improvement score were evaluated using a CMH test stratified by pooled center applied to the frequencies of the seven CGI Improvement categories with modified ridit scores. […] The treatment comparison of the 30 mg bifeprunox group versus placebo group was not notable (p=0.162). No notable differences were observed between the placebo group and either of the two bifeprunox dose groups at any other time point during the study (Week 1 through Week 4).

[3] = test system: adult subjects with schizophrenia; experiment: PANSS responder rates, Clinical Study One; conditions: for PANSS responder rate, 20% definition: Endpoint LOCF; for PANSS Responder at Endpoint (LOCF), 20% Definition / PANSS Responder at Endpoint (LOCF), 25% Definition / PANSS Responder at Endpoint (LOCF), 30% Definition / PANSS Responder at Endpoint (LOCF), 35% Definition: ITT
Experimental: There were five treatment groups in this study. […] Study medication was administered once daily. After Baseline measurements were performed, the titration phase was begun. Bifeprunox treated subjects were titrated up to 5 mg, 10 mg or 20 mg according to a standardized titration schedule (Day 1: 0.125 mg, Day 2: 0.25 mg, Day 3: 0.5 mg, Day 4: 1.0 mg, Day 5: 2.0 mg, Day 6: 5.0 mg, Day 7: 10.0 mg, Day 8: 20 mg). When the assigned dose was reached, subjects were maintained at that dose for the remainder of the six-week treatment period.

O=c1[nH]c2cccc(N3CCN(Cc4cccc(-c5ccccc5)c4)CC3)c2o1 [Bifeprunox, 7-[4-([1,1′-biphenyl]-3-ylmethyl)-1-piperazinyl]-2(3H)-benzoxazolone]
Headache Nos, % ([1]; BX 20 mg): (25%)
Hypoaesthesia, % ([1]; BX 20 mg): (<1%)
Memory Impairment, % ([1]; BX 20 mg): (3%)
Oculogyric Crisis, % ([1]; BX 20 mg): (<1%)
PSYCHIATRIC DISORDERS, % ([1]; BX 20 mg): (40%)
Parkinsonism, % ([1]; BX 20 mg): (<1%)
SEDATION, % ([1]; BX 20 mg): (9%)
SOMNOLENCE, % ([1]; BX 20 mg): (5%)
Syncope, % ([1]; BX 20 mg): (2%)
TARDIVE DYSKINESIA, % ([1]; BX 20 mg): (<1%)
TREMOR, % ([1]; BX 20 mg): (<1%)
subjects with at least one AE that led to discontinuation ([1]; bifeprunox 5 mg): 11%
subjects with at least one TEAE ([1]; bifeprunox 5 mg): 89%
subjects with at least one AE that led to discontinuation ([1]; bifeprunox 10 mg): 14%
subjects with at least one TEAE ([1]; bifeprunox 10 mg): 87%
incidence of aggravated schizophrenia NOS (SAE) ([1]; bifeprunox 20 mg): 7%
subjects with at least one AE that led to discontinuation ([1]; bifeprunox 20 mg): 10%
subjects with at least one TEAE ([1]; bifeprunox 20 mg): 83%
subjects with at least one severe TEAE ([1]; bifeprunox 20 mg): 10%
suicide attempt ([1]; bifeprunox 20 mg): 2%
safety and tolerability [1]: safe and well tolerated at all dose levels
safety and tolerability ([1]; listed as bifeprunox): safe and well tolerated
subjects with at least one SAE ([1]; bifeprunox groups (5, 10, 20 mg)): 12-15%
rates of EPS ([1]; bifeprunox, 6 weeks (Example 4)): comparable to placebo
CGI Improvement Minimally Improved, % ([2]; 30 mg, Week 2): (45%)
CGI Improvement Minimally Worse, % ([2]; 30 mg, Week 2): (9%)
CGI Improvement Much Improved, % ([2]; 30 mg, Week 2): (21%)
CGI Improvement Much Worse, % ([2]; 30 mg, Week 2): (4%)
CGI Improvement No Change, % ([2]; 30 mg, Week 2): (19%)
CGI Improvement Very Much Improved, % ([2]; 30 mg, Week 2): (2%)
CGI Improvement Minimally Improved, % ([2]; 30 mg, Week 4): (30%)
CGI Improvement Minimally Worse, % ([2]; 30 mg, Week 4): (11%)
CGI Improvement Much Improved, % ([2]; 30 mg, Week 4): (32%)
CGI Improvement Much Worse, % ([2]; 30 mg, Week 4): (6%)
CGI Improvement No Change, % ([2]; 30 mg, Week 4): (17%)
CGI Improvement Very Much Improved, % ([2]; 30 mg, Week 4): (5%)
CGI Improvement Minimally Improved, % ([2]; 30 mg, Week 6/Endpoint): (28%)
CGI Improvement Minimally Worse, % ([2]; 30 mg, Week 6/Endpoint): (13%)
CGI Improvement Much Improved, % ([2]; 30 mg, Week 6/Endpoint): (33%)
CGI Improvement Much Worse, % ([2]; 30 mg, Week 6/Endpoint): (7%)
CGI Improvement No Change, % ([2]; 30 mg, Week 6/Endpoint): (15%)
CGI Improvement Very Much Improved, % ([2]; 30 mg, Week 6/Endpoint): (5%)
CGI Improvement Minimally Improved, % ([2]; 40 mg, Week 2): (37%)
CGI Improvement Minimally Worse, % ([2]; 40 mg, Week 2): (7%)
CGI Improvement Very Much Improved, % ([2]; 40 mg, Week 2): (<1%.)
CGI Improvement Minimally Improved, % ([2]; 40 mg, Week 4): (29%)
CGI Improvement Minimally Worse, % ([2]; 40 mg, Week 4): (8%)
CGI Improvement Very Much Improved, % ([2]; 40 mg, Week 4): (3%)
CGI Improvement Minimally Improved, % ([2]; 40 mg, Week 6/Endpoint): (30%)
CGI Improvement Minimally Worse, % ([2]; 40 mg, Week 6/Endpoint): (8%)
CGI Improvement Very Much Improved, % ([2]; 40 mg, Week 6/Endpoint): (7%)
CGI Improvement Much Improved, % ([2]; Week 2): (19%)
CGI Improvement Much Worse, % ([2]; Week 2): (10%)
CGI Improvement No Change, % ([2]; Week 2): (22%)
CGI Improvement Very Much Worse, % ([2]; Week 2): (<1%)
CGI Improvement Much Improved, % ([2]; Week 4): (30%)
CGI Improvement Much Worse, % ([2]; Week 4): (11%)
CGI Improvement No Change, % ([2]; Week 4): (17%)
CGI Improvement Very Much Worse, % ([2]; Week 4): (1%)
CGI Improvement Much Improved, % ([2]; Week 6/Endpoint): (27%)
CGI Improvement Much Worse, % ([2]; Week 6/Endpoint): (11%)
CGI Improvement No Change, % ([2]; Week 6/Endpoint): (16%)
CGI Improvement Very Much Worse, % ([2]; Week 6/Endpoint): (1%)
PANSS responder rate, 20% definition ([3]; Bifeprunox 5 mg): 28%
PANSS Responder at Endpoint (LOCF), 20% Definition ([3]; Bifeprunox 5 mg): 31 (28) n (%)
PANSS Responder at Endpoint (LOCF), 25% Definition ([3]; Bifeprunox 5 mg): 25 (23) n (%)
PANSS Responder at Endpoint (LOCF), 30% Definition ([3]; Bifeprunox 5 mg): 16 (15) n (%)
PANSS Responder at Endpoint (LOCF), 35% Definition ([3]; Bifeprunox 5 mg): 11 (10) n (%)
PANSS responder rate, 20% definition ([3]; Bifeprunox 10 mg): 24%
PANSS Responder at Endpoint (LOCF), 20% Definition ([3]; Bifeprunox 10 mg): 28 (24) n (%)
PANSS Responder at Endpoint (LOCF), 25% Definition ([3]; Bifeprunox 10 mg): 22 (19) n (%)
PANSS Responder at Endpoint (LOCF), 30% Definition ([3]; Bifeprunox 10 mg): 12 (10) n (%)
PANSS Responder at Endpoint (LOCF), 35% Definition ([3]; Bifeprunox 10 mg): 7 (6) n (%)
PANSS Responder at Endpoint (LOCF), 20% Definition ([3]; Bifeprunox 20 mg): 38 (34) n (%)
PANSS Responder at Endpoint (LOCF), 25% Definition ([3]; Bifeprunox 20 mg): 27 (24) n (%)
PANSS Responder at Endpoint (LOCF), 30% Definition ([3]; Bifeprunox 20 mg): 18 (16) n (%)
PANSS Responder at Endpoint (LOCF), 35% Definition ([3]; Bifeprunox 20 mg): 14 (13) n (%)
PANSS responder rate, 20% definition ([3]; bifeprunox 20 mg): 34%
